# Measurements published in PMC7617869, “Molecular glues that inhibit deubiquitylase activity and inflammatory signaling” (Nature Structural & Molecular Biology, 2025).
# Several values for one entry are separate records, joined by “and”; a condition that tells them apart may be missing. Equal entries are not always repeated. Where two headings read alike, the source gives them in different places.
# Tests used:
# BRISC = target: T1, BRISC (Homo sapiens, UniProt P46736+Q15018+Q9NXR7); experiment: BRISC DUB activity assay (IQF K63-linked diubiquitin); assay type: biochemical
# T1 construct: made in house; host or cells: Spodoptera frugiperda (Sf9) insect cells, MultiBac
# Procedure, shortened: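 Cleavage of 50 nM IQF K63-linked diubiquitin was followed by fluorescence (ex 544 nm, em 575 nm) every minute for 30 min at 30 °C in 50 mM HEPES–NaOH pH 7.0, 100 mM NaCl, 0.1 mg ml^−1 BSA, 1 mM DTT, 0.03% Brij-35. BRISC WT and mutants were at 1 nM final. IC50 values came from variable-slope fits of initial velocity.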
# [1] = tested on: IFNAR1 cell surface levels in sgROSA MCF10A cells; experiment: MCF10A sgROSA IFNAR1 cell surface levels (FACS); assay type: cell-based, human
# Description: To study the direct effect of BRISC DUB inhibitors, IFNAR1 surface levels were measured using flow cytometry (FACS) analysis. For this purpose, MCF10A WT and MCF10A BRCC45 KO cells expressing […]
# BRCC45 WT or BRCC45 R137A were used. […]
# minutes prior to the addition of 50 ng/mL of hIFN-Iα for various time points (45 minutes and 90 minutes).
# After IFN treatment, cells were dissociated from plate using cell dissociation Buffer (ThermoFisher Scientific, #13150016) and were stained with LIVE/DEAD™ Fixable Violet Dead Cell Stain Kit, for 405 nm excitation (ThermoFisher Scientific, #L34963) for 30 minutes, as per the kit protocol. The cells were then washed using FACS buffer (DPBS, 1% BSA, 2 mM EDTA, 0.09% sodium azide) and transferred to 96-well round bottom plates. Resuspended cells were divided into three repeats for each sample, each was surface stained for 1 hour at 4 °C with: 1. Human IFN-alpha/beta R1 Antibody (R&D systems, #MAB245), 2. Mouse IgG1 Isotype Control (R&D systems, #MAB002), 3. FACS buffer (control cells).
# Following incubation, cells were washed once with FACS buffer and were labelled for 30 minutes at 4 °C with either Biotin-SP-conjugated AffiniPure Donkey Anti-Mouse IgG (H+L) (Jackson Immunoresearch Laboratories) for samples 1 and 2 or with FACS buffer for sample 3. Cells were washed twice with FACS buffer and were labelled for 15 minutes at 4 °C with either R-Phycoerythrin-conjugated Streptavidin (Jackson Immunoresearch Laboratories) for samples 1 and 2 or with FACS buffer for sample 3. Cells were washed 3 times with FACS buffer and were analysed by FACS (MACSQuant, Miltenyi Biotec). For each sample from group 1 the Geo mean fluorescence intensity (MFI) of its isotype sample was reduced. IFNAR1 cell surface percentage was calculated by 100*(MFI
smiles,measurement,setting,value
O=C(NC1CCNCC1)c1nn(C(=O)c2c(Cl)cccc2Cl)cc1NC(=O)c1c(Cl)cccc1Cl [JMS-175-2],IC50,"BRISC; 32-point dose-response, biphasic fit, read-out: IC50(1), biphasic curve",1100 nM
same,IC50,"BRISC; 32-point dose-response, biphasic fit, read-out: IC50(2), biphasic curve",168 nM
same,Normalised V0,"BRISC; Fig. 1e, BRISC, JMS-175-2 1.9996 μM",0.6565 and 0.4518
same,Normalised V0,"BRISC; Fig. 1e, BRISC, JMS-175-2 5.19739 μM",0.283 and 0.275 and 0.3465
same,Normalised V0,"BRISC; Fig. 1d, log[compound (μM)] 0.0000, listed as H20",0.6438 and 0.8274 and 0.7444
same,Normalised V0,"BRISC; Fig. 1d, log[compound (μM)] 0.3979, listed as H20",0.5783 and 0.5268 and 0.4841
same,Normalised V0,"BRISC; Fig. 1d, log[compound (μM)] 0.6990, listed as H20",0.3795 and 0.3824 and 0.3190
same,Normalised V0,"BRISC; Fig. 1d, log[compound (μM)] 1.0000, listed as H20",0.2528 and 0.2942 and 0.2669
same,Normalised V0,"BRISC; Fig. 1d, log[compound (μM)] 1.4771, listed as H20",0.1351 and 0.1861 and 0.1726
same,Normalised V0,"BRISC; Fig. 1d, log[compound (μM)] 1.6990, listed as H20",0.1117 and 0.1567 and 0.1200
same,Normalised V0,"BRISC; Fig. 1d, log[compound (μM)] -0.3010, listed as H20",0.9255 and 0.9030
same,Normalised V0,"BRISC; Fig. 1d, log[compound (μM)] -1.0000, listed as H20",0.9975 and 1.0280 and 1.0210
same,Normalised V0,"BRISC; Fig. 1d, log[compound (μM)] -2.0000, listed as H20",1.0150 and 0.9155 and 1.0690
same,IC50,"BRISC; IQF K63-linked diubiquitin substrate, read-out: IC50, inhibition of BRISC DUB activity",3800 nM
same,Normalised V0,"BRISC; [Inhibitor] 0.013 μM, replicate columns",0.9583 and 0.7384 and 1.046 and 0.967 and 0.8595 and 0.8402
same,Normalised V0,"BRISC; [Inhibitor] 0.02 μM, replicate columns",0.8771 and 0.8197 and 1.004
same,Normalised V0,"BRISC; [Inhibitor] 0.0399999 μM, replicate columns",1.299 and 0.7892 and 1.03
same,Normalised V0,"BRISC; [Inhibitor] 0.0599997 μM, replicate columns",0.839 and 0.6819 and 0.9433
same,Normalised V0,"BRISC; [Inhibitor] 0.0799994 μM, replicate columns",0.9097 and 0.9012 and 0.9628
same,Normalised V0,"BRISC; [Inhibitor] 0.119998 μM, replicate columns",1.013 and 0.9179 and 1.054
same,Normalised V0,"BRISC; [Inhibitor] 0.199996 μM, replicate columns",1.253 and 0.7708 and 1.101
same,Normalised V0,"BRISC; [Inhibitor] 0.499975 μM, replicate columns",0.5936 and 0.7022 and 0.9756
same,Normalised V0,"BRISC; [Inhibitor] 0.799936 μM, replicate columns",0.9296 and 0.6017 and 0.8518
same,Normalised V0,"BRISC; [Inhibitor] 1.25984 μM, replicate columns",1.139 and 0.471 and 0.8066
same,Normalised V0,"BRISC; [Inhibitor] 1.9996 μM, replicate columns",0.6565 and 0.4518 and 0.6268
same,Normalised V0,"BRISC; [Inhibitor] 3.159 μM, replicate columns",0.6624 and 0.3061 and 0.5597
same,Normalised V0,"BRISC; [Inhibitor] 5.19739 μM, replicate columns",0.283 and 0.275 and 0.3465
same,Normalised V0,"BRISC; [Inhibitor] 7.99364 μM, replicate columns",0.6473 and 0.2184 and 0.4215
same,Normalised V0,"BRISC; [Inhibitor] 12.7839 μM, replicate columns",0.4135 and 0.1798 and 0.2477
same,Normalised V0,"BRISC; [Inhibitor] 19.96 μM, replicate columns",0.3284 and 0.5166 and 0.3249
same,Normalised V0,"BRISC; [Inhibitor] 31.4999 μM, replicate columns",0.6187 and 0.1303 and 0.1533
same,Normalised V0,"BRISC; [Inhibitor] 50.147 μM, replicate columns",0.2621 and 0.1377 and 0.1733
same,Normalised V0,"BRISC; [Inhibitor] 79.7601 μM, replicate columns",0.2164 and 0.1356 and 0.1726
same,Normalised V0,"BRISC; [Inhibitor] 125.99 μM, replicate columns",0.1111 and 0.1816 and 0.02719
same,Normalised V0,"BRISC; [Inhibitor] 199.922 μM, replicate columns",-0.03072 and 0.01018 and -0.03521
same,Normalised velocity (V0),BRISC; inhibitor 0.000794328 μM,1
same,Normalised velocity (V0),BRISC; inhibitor 0.00125892 μM,0.9579 and 1.034
same,Normalised velocity (V0),BRISC; inhibitor 0.00199526 μM,1.01 and 0.9969
same,Normalised velocity (V0),BRISC; inhibitor 0.00316228 μM,0.9962 and 1.154
same,Normalised velocity (V0),BRISC; inhibitor 0.00501187 μM,0.9932 and 1.028
same,Normalised velocity (V0),BRISC; inhibitor 0.00794328 μM,1.087 and 1.121
same,"normalised V0, Mean",BRISC; inhibitor 0.01 μM,1
same,Normalised velocity (V0),BRISC; inhibitor 0.0125893 μM,1.059 and 1.016
same,Normalised velocity (V0),BRISC; inhibitor 0.0199526 μM,1.08 and 1.097
same,Normalised velocity (V0),BRISC; inhibitor 0.0316228 μM,1.03 and 1.101
same,Normalised velocity (V0),BRISC; inhibitor 0.0501187 μM,1.036 and 1.109
same,"normalised V0, Mean",BRISC; inhibitor 0.0781 μM,0.9992
same,Normalised velocity (V0),BRISC; inhibitor 0.0794328 μM,1.026 and 1.083
same,Normalised velocity (V0),BRISC; inhibitor 0.125893 μM,0.8526 and 0.9544
same,Normalised velocity (V0),BRISC; inhibitor 0.199526 μM,0.6481 and 0.8082
same,Normalised velocity (V0),BRISC; inhibitor 0.316228 μM,0.694 and 0.5793
same,Normalised velocity (V0),BRISC; inhibitor 0.398107 μM,0.5098 and 0.5762
same,Normalised velocity (V0),BRISC; inhibitor 0.630957 μM,0.4827 and 0.4555
same,"normalised V0, Mean",BRISC; inhibitor 0.7812 μM,0.7414
same,Normalised velocity (V0),BRISC; inhibitor 1 μM,0.3835 and 0.2691
same,"normalised V0, Mean",BRISC; inhibitor 1.562 μM,0.5385
same,Normalised velocity (V0),BRISC; inhibitor 1.58489 μM,0.2248 and 0.2189
same,Normalised velocity (V0),BRISC; inhibitor 2.51189 μM,0.2301 and 0.1988
same,"normalised V0, Mean",BRISC; inhibitor 3.12 μM,0.384
same,Normalised velocity (V0),BRISC; inhibitor 3.98107 μM,0.1293 and 0.1933
same,"normalised V0, Mean",BRISC; inhibitor 6.25 μM,0.2986
same,Normalised velocity (V0),BRISC; inhibitor 6.30957 μM,0.09323 and 0.07115
same,"normalised V0, Mean",BRISC; inhibitor 12.3 μM,0.2014
same,Normalised velocity (V0),BRISC; inhibitor 15.8489 μM,0.009774 and 0.01547
same,"normalised V0, Mean",BRISC; inhibitor 24.54 μM,0.1684
same,Normalised velocity (V0),BRISC; inhibitor 25.1189 μM,0
same,Normalised velocity (V0),BRISC; inhibitor 39.8107 μM,0
same,"normalised V0, Mean",BRISC; inhibitor 48.9 μM,0.1492
same,Normalised velocity (V0),BRISC; inhibitor 63.0957 μM,0
same,Normalised velocity (V0),BRISC; inhibitor 100 μM,0
same,"normalised V0, Mean",BRISC; inhibitor 100 μM,0.04999
same,"normalised V0, Mean",BRISC; inhibitor 199.5 μM,0.004784
same,IFNAR1 cell surface levels,"[1]; IFN + compound, three replicates",40.6849 and 39.7065 and 39.3396
same,IFNAR1 cell surface levels,"[1]; sgROSA cells, IFN 50 ng/ml, 5 μM, 90 min",reduction in IFNAR1 cell surface levels
